Data from patent publication US20240299542A1, “NATURAL KILLER CELLS ENGINEERED TO REDUCE OR ELIMINATE CBL-B AND USES THEREOF” (City of Hope, priority 2021, published 2024).

Tests used:
Cbl-b = assay: siRNA knockdown efficiency by immunoblot in primary human NK cells; format: cell-based; conditions: 48 h transduction, vs Scr siRNA
Description: (§1) FIG. 8A Primary human NK cells were transduced with Cbl-b siRNA or a scrambled siRNA (Scr siRNA) for 48 h, directly followed by immunoblot analysis to determine the efficiency of siRNA (n=3 donors). […] FIG. 8B qRT-PCR was performed to quantify the level of perform mRNA (n=7 donors) in Cbl-b siRNA- and Scr siRNA-transduced primary human cells incubated without or with IL-15 (10 ng/ml) for 16 h. FIG. 8C The perform protein level in Cbl-b siRNA- and Scr siRNA-transduced primary human NK cells incubated 24 without or with IL-15 (10 ng/ml) for 24 h was measured by immunoblot analysis. The data are representative of four experiments and are summarized in the right panel. Scr, scrambled; *P<0.05, **P<0.01; ns, not significant. Data are presented as mean±SEM.
Transient transfection. Primary human NK cells were transfected with Accell siRNA by using the Accell delivery media from Dharmacon. Gene knockdown efficiency of siRNA was determined with immunoblotting analysis.
Immunoblotting. […] Densitometric analysis was performed to quantify intensity of gel bands with Image J (National Institutes of Health).
(§2) Both groups were next incubated without or with IL-15 and co-cultured with ^51Cr labeled MV4-11, Molm-13, or EOL-1 leukemia cell lines, followed by assessment of specific lysis measured after 4 h of co-culture.

perform = assay: Perforin mRNA by qRT-PCR in siRNA-transduced NK cells; format: cell-based, human; conditions: without or with IL-15 (10 ng/ml) 16 h, vs Scr siRNA
Description: as §1
(§3) Reverse transcription-polymerase chain reaction. Total RNA was isolated from primary NK cells with the RNeasy Mini Kit (Qiagen). Complementary DNA (cDNA) was generated by Moloney murine leukemia virus (M-MLV) reverse transcriptase (Invitrogen) and amplified by qPCR with SYBR Green PCR Master Mix (Applied Biosystems) and gene-specific primers. Relative amplification values were normalized to the amplification of GAPDH or 18S rRNA.
as §2

IFN-γ [1] = assay: IFN-γ mRNA by qRT-PCR in IL-15-activated siRNA-transduced NK cells; format: cell-based, human; conditions: IL-15 (10 ng/ml) 6 h, vs Scr siRNA
Description: (§4) FIGS. 4A-4D depict the results of a study showing that downregulation of Cbl-b increases IFN-γ secretion in IL-15-activated primary human NK cells. (FIG. 4A) RNAseq was conducted using primary human NK cells transduced with either Cbl-b siRNA or Scr siRNA without or with incubation in IL-15 (10 ng/ml) for 16 h (4 donors for each group). […] (FIG. 4B) qRT-PCR was performed to quantify the mRNA levels of IFN-γ (n=6 donors) after IL-15 (10 ng/ml) 6 h stimulation. (FIG. 4C) The percentage of intracellular IFN-γ+ cells in un-transduced NK cells or those transduced with Cbl-b siRNA or Scr siRNA, each activated with IL-15 (10 ng/ml) for 24 h (11.5% vs 4.338%; P=0.0008; n=5 donors). (FIG. 4D) Supernatants were collected after IL-15 (10 ng/ml) for 24 h and IFN-γ concentrations measured by ELISA (18115 pg/ml vs 882.5 pg/ml; P=0.0099; n=7 donors). Scr-scrambled; *P<0.05, **P<0.01, ***P<0.001 by Student's two-tailed paired t-test or One-way ANOVA; ns, not significant. Data presented as mean±SEM.
as §3, with “Relative amplification values were normalized to the amplification of GAPDH or 18S rRNA.” left out

IFN-γ [2] = assay: IFN-γ in supernatants by ELISA; format: cell-based, human
Description: as §4
ELISA. Primary NK cells were plated in an equivalent number of 100,000 cells/well in a 96-well plate in RPMI and supplemented with 10% FBS. Cells were treated with recombinant human IL-15 (10 ng/ml) for 24 h, and cell-free culture supernatant was collected and frozen at −80° C. for later use. IFN-γ concentration was measured by ELISA using anti-IFN-γ antibody from Thermo Fisher Scientific. Granzyme B concentration was measured by ELISA kit purchased from R&D.
To further explore how Cbl-b regulates the functions of primary human NK cells, we performed RNA-seq analyses using enriched primary NK cells from healthy donors transduced with Cbl-b siRNA or Scr siRNA without or with IL-15 treatment for 16 h (n=4 in each group). […] The intracellular results were supported by assessment IFN-γ secretion into the supernatant, in that IL-15-activated primary human NK cells transduced with Cbl-b siRNA expressed 10-fold higher levels of IFN-γ compared to NK cells transduced with Scr siRNA (FIG. 4D).

Substance: Cbl-b siRNA: Cbl-b-specific Accell siRNA (Dharmacon), SEQ ID NO:1, CCUUCAUGUUCAGAUGGUU (Accell modified siRNA, pattern not given here)
- expression of Cbl-b after siRNA transduction (Cbl-b): significant decrease
- perform mRNA (perform): did not reach a statistical significance
- IFN-γ mRNA (IFN-γ [1]): increased dramatically
- IFN-γ concentration in supernatants (IFN-γ [2]; IL-15 (10 ng/ml) 24 h, n=7 donors): 18115 pg/mL
- secreted IFN-γ level relative to Scr siRNA (IFN-γ [2]; IL-15-activated): 10 fold
